Values joined by “and” are separate entries in the source; they are usually repeats but may differ in a detail not shown here. Equal values may be shown once. Read-outs that look alike come from different tables or passages of the source.
What was measured:
HEK293-STF3A cells = assay: STF3A assay (Wnt reporter luciferase); assay type: cell-based; conditions: Homo sapiens, 24 h, 1 day of treatment, read-out: IC50 activities on STF3A cells
Protocol: HEK293-STF cell line was modified from Human embryonic kidney cell line HEK293 transfected with the STF reporter. HEK293-STF3 A cell line was further modified from HEK293-STF cell line to express Wnt3A. This cell line was used to identify compounds that regulate either early or late signalling components of the Wnt pathway. L-Wnt3 A (ATCC, #CRL-2647) cell line was used for providing Wnt3 A conditioned media. The three cell lines were grown in DMEM (Dulbecco's Modified Eagle Medium) with 10% FBS (fetal bovine serum) incubated in 37° C. with 5% CO2.
2×10^4 HEK293-STF3A cells in 75 μl culture media were seeded in each well of white 96 well plates (Greiner #655098) and incubated overnight at 37° C. 25 μl serially diluted compound was added to the cells to give final concentration of 50 μM to 1.5 nM. After 1 day of treatment, 100 μl of Steady-Glo® Luciferase Assay reagent (#E2520, Promega) was added to each well and incubated for 10 minutes at room temperature. Luminescence was measured using Tecan Safire2® plate reader.

[1] = Plasma pharmacokinetics after single intravenous and oral dose; assay type: in vivo, male BALB/c mice; conditions: for concentration at 24 hr: average of two values
Protocol: The objective of this study was to investigate the plasma pharmacokinetics of Compound 1 in male BALB/c mice following a single intravenous and oral dose administration. A group of eighteen male mice were divided in to two groups as Group 1 and Group 2 with nine mice in each group.
Animals in Group 1 were administered intravenously with Compound 1 solution formulation in 7.5% NMP, 5% Solutol HS-15 and 87.5% normal Saline at a dose of 1 mg/kg.
Animals in Group 2 were administered orally with Compound 1 solution formulation in 7.5% NMP, 5% Solutol HS-15 and 87.5% normal Saline at a dose of 5 mg/kg.
Blood samples (approximately 60 μL) were collected under light isoflurane anesthesia from retro orbital plexus at predose, 0.08, 0.25, 0.5, 1, 2, 4, 8 and 24 hr (IV) and predose, 0.25, 0.5, 1, 2, 4, 6, 8 and 24 hr (PO). During each sampling point, blood samples were collected in labeled pre-chilled tubes containing K2EDTA (20% K2EDTA solution) as an anticoagulant and protease inhibitor (10 μL of 10× solution/100 μL of blood). Low temperature was maintained till storage of plasma at −70° C. Plasma samples were separated by centrifugation of whole blood and stored below −70° C. until bioanalysis. All samples were processed for analysis by protein precipitation using acetonitrile (ACN) and analyzed with fit-for-purpose LC/MS/MS method (Lower limit of quantitation (LLOQ: 1.02 ng/mL). Pharmacokinetic parameters were calculated using the non-compartmental analysis tool of Phoenix WinNonlin® (Version 6.3). The overall pharmacokinetic parameters are summarized below:
The objective of the study is to determine the plasma pharmacokinetics of Compound 1 in male BALB/c mice following a single intravenous (1 mg/kg) and oral (5 mg/kg) administration in presence of a protease inhibitor.
(§1) A group of eighteen male mice were divided in to two groups as Group 1 and Group 2 with nine mice in each group. Animals in Group 1 were administered intravenously with Compound 1 solution formulation in 7.5% NMP, 5% Solutol HS-15 and 87.5% normal Saline at a dose of 1 mg/kg. Animals in Group 2 were administered orally with Compound 1 solution formulation in 7.5% NMP, 5% Solutol HS and 87.5% normal Saline at a dose of 5 mg/kg.
The dosing volume administered was 5 mL/kg for intravenous and 10 mL/kg for oral administration.
Blood samples (approximately 60 μL) were collected from retro-orbital plexus of three mice at each time point [predose, 0.08, 0.25, 0.5, 1, 2, 4, 8 and 24 hr (IV) and predose, 0.25, 0.5, 1, 2, 4, 6, 8 and 24 hr (PO)]. During each sampling point, blood samples were collected in labeled pre-chilled tubes containing K2EDTA (20% K2EDTA solution) as an anticoagulant and protease inhibitor (10 μL of 10× solution/100 μL of blood). Low temperature was maintained till storage of plasma at −70° C. Plasma was immediately harvested from the blood by centrifugation at 4000 rpm for 10 min at 4±2° C. and stored below −70° C. until bioanalysis. Preparation of protease inhibitor solution: One tablet of sigmaFAST (Product Code: 58820) was reconstituted into 10 mL of Milli-Q water to prepare 10× solution.
Concentrations of Compound 1 in mouse plasma samples were determined by fit-for-purpose LC-MS/MS method. The sample processing and extraction procedure, chromatographic and mass spectrometric conditions are provided below:
A 25 μL of study sample (DF was applied for few samples) or spiked plasma calibration standard was added to individual pre-labeled micro-centrifuge tubes followed by 100 μL of internal standard prepared in acetonitrile (Glipizide, 500 ng/mL) was added except for blank, where 100 μL of acetonitrile was added. Samples were vortexed for 5 minutes. Samples were centrifuged for 10 minutes at a speed of 4000 rpm at 4° C. Following centrifugation, 100 μL of clear supernatant was transferred in 96 well plates and analyzed using LC-MS/MS.
Non-Compartmental-Analysis tool of Phoenix WinNonlin® (Version 6.3) was used to assess the pharmacokinetic parameters. […]

[2] = Clinical observations after intravenous and oral dose administration; assay type: in vivo, male BALB/c mice; conditions: after IV 1 mg/kg and PO 5 mg/kg single dose
Protocol: as §1

[3] = male, BALB/c, mouse, IV 1 mg/kg, plasma
[4] = male, BALB/c, mouse, PO 5 mg/kg, plasma

Vss relative to normal volume of total body water (0.7 L/kg) ([1]; IV 1 mg/kg): ~2 fold
Plasma concentration, individual animals ([1]; IV 1 mg/kg, 0.25 hr, 1 mg/kg): 1052.34 ng/mL and 1048.27 ng/mL
Plasma concentration, individual animals ([1]; IV 1 mg/kg, 0.5 hr, 1 mg/kg): 899.26 ng/mL and 894.59 ng/mL
Plasma concentration, individual animals ([1]; IV 1 mg/kg, 2 hr, 1 mg/kg): 60.16 ng/mL and 49.49 ng/mL
Plasma concentration, individual animals ([1]; IV 1 mg/kg, 4 hr, 1 mg/kg): 37.94 ng/mL and 27.10 ng/mL
Plasma concentration, individual animals ([1]; IV 1 mg/kg, 24 hr, below LLOQ considered zero, 1 mg/kg): 1.36 ng/mL and 1.10 ng/mL and 0.00 ng/mL
CL (expressed as CLf) ([1]; PO 5 mg/kg): 26.74 mL/min/kg
Vss (expressed as Vz) ([1]; PO 5 mg/kg): 7.55 L/kg
Time up to which plasma concentrations were quantifiable ([1]; PO 5 mg/kg, 2 animals out of 3, LLOQ 1.02 ng/mL): up to 24 hr
Plasma concentration, individual animals ([1]; PO 5 mg/kg, 0.25 hr, 5 mg/kg): 2450.80 ng/mL and 1426.54 ng/mL
Plasma concentration, individual animals ([1]; PO 5 mg/kg, 1 hr, 5 mg/kg): 474.33 ng/mL and 433.52 ng/mL
Plasma concentration, individual animals ([1]; PO 5 mg/kg, 2 hr, 5 mg/kg): 331.78 ng/mL and 365.08 ng/mL
Plasma concentration, individual animals ([1]; PO 5 mg/kg, 6 hr, 5 mg/kg): 110.77 ng/mL and 81.54 ng/mL
Plasma concentration, individual animals ([1]; PO 5 mg/kg, 8 hr, 5 mg/kg): 41.28 ng/mL and 53.22 ng/mL
Plasma concentration, individual animals ([1]; PO 5 mg/kg, 24 hr, below LLOQ considered zero, 5 mg/kg): 0.00 ng/mL and 1.28 ng/mL and 2.31 ng/mL
concentration at 0.08 hr ([1]; male, BALB/c, mouse, plasma, iv, 1 mg/kg, IV 1 mg/kg, 0.08 hr): 2000 ng/mL
concentration at 0.25 hr ([1]; male, BALB/c, mouse, plasma, iv, 1 mg/kg, IV 1 mg/kg, 0.25 hr, read-out: Plasma concentration, Mean): 1020 ng/mL
concentration at 0.25 hr ([1]; male, BALB/c, mouse, plasma, iv, 1 mg/kg, IV 1 mg/kg, 0.25 hr, read-out: Plasma concentration, individual animals): 948 ng/mL
concentration at 0.5 hr ([1]; male, BALB/c, mouse, plasma, iv, 1 mg/kg, IV 1 mg/kg, 0.5 hr, read-out: Plasma concentration, Mean): 915 ng/mL
concentration at 0.5 hr ([1]; male, BALB/c, mouse, plasma, iv, 1 mg/kg, IV 1 mg/kg, 0.5 hr, read-out: Plasma concentration, individual animals): 952 ng/mL
concentration at 1 hr ([1]; male, BALB/c, mouse, plasma, iv, 1 mg/kg, IV 1 mg/kg, 1 hr, read-out: Plasma concentration, Mean): 306 ng/mL
concentration at 2 hr ([1]; male, BALB/c, mouse, plasma, iv, 1 mg/kg, IV 1 mg/kg, 2 hr, read-out: Plasma concentration, Mean): 50.7 ng/mL
concentration at 2 hr ([1]; male, BALB/c, mouse, plasma, iv, 1 mg/kg, IV 1 mg/kg, 2 hr, read-out: Plasma concentration, individual animals): 42.5 ng/mL
concentration at 4 hr ([1]; male, BALB/c, mouse, plasma, iv, 1 mg/kg, IV 1 mg/kg, 4 hr, read-out: Plasma concentration, Mean): 34.7 ng/mL
concentration at 4 hr ([1]; male, BALB/c, mouse, plasma, iv, 1 mg/kg, IV 1 mg/kg, 4 hr, read-out: Plasma concentration, individual animals): 39.2 ng/mL
concentration at 8 hr ([1]; male, BALB/c, mouse, plasma, iv, 1 mg/kg, IV 1 mg/kg, 8 hr, read-out: Plasma concentration, Mean): 14.5 ng/mL
concentration at 24 hr ([1]; male, BALB/c, mouse, plasma, iv, 1 mg/kg, IV 1 mg/kg, 24 hr): 1.23 ng/mL
concentration at 0.25 hr ([1]; male, BALB/c, mouse, plasma, po, 5 mg/kg, PO 5 mg/kg, 0.25 hr, read-out: Plasma concentration, Mean): 1860 ng/mL
concentration at 0.25 hr ([1]; male, BALB/c, mouse, plasma, po, 5 mg/kg, PO 5 mg/kg, 0.25 hr, read-out: Plasma concentration, individual animals): 1690 ng/mL
concentration at 0.5 hr ([1]; male, BALB/c, mouse, plasma, po, 5 mg/kg, PO 5 mg/kg, 0.5 hr, read-out: Plasma concentration, Mean): 1710 ng/mL
concentration at 1 hr ([1]; male, BALB/c, mouse, plasma, po, 5 mg/kg, PO 5 mg/kg, 1 hr, read-out: Plasma concentration, Mean): 457 ng/mL
concentration at 1 hr ([1]; male, BALB/c, mouse, plasma, po, 5 mg/kg, PO 5 mg/kg, 1 hr, read-out: Plasma concentration, individual animals): 462 ng/mL
concentration at 2 hr ([1]; male, BALB/c, mouse, plasma, po, 5 mg/kg, PO 5 mg/kg, 2 hr, read-out: Plasma concentration, Mean): 411 ng/mL
concentration at 2 hr ([1]; male, BALB/c, mouse, plasma, po, 5 mg/kg, PO 5 mg/kg, 2 hr, read-out: Plasma concentration, individual animals): 535 ng/mL
concentration at 4 hr ([1]; male, BALB/c, mouse, plasma, po, 5 mg/kg, PO 5 mg/kg, 4 hr, read-out: Plasma concentration, Mean): 217 ng/mL
concentration at 6 hr ([1]; male, BALB/c, mouse, plasma, po, 5 mg/kg, PO 5 mg/kg, 6 hr, read-out: Plasma concentration, Mean): 91.8 ng/mL
concentration at 6 hr ([1]; male, BALB/c, mouse, plasma, po, 5 mg/kg, PO 5 mg/kg, 6 hr, read-out: Plasma concentration, individual animals): 83.2 ng/mL
concentration at 8 hr ([1]; male, BALB/c, mouse, plasma, po, 5 mg/kg, PO 5 mg/kg, 8 hr, read-out: Plasma concentration, Mean): 45.8 ng/mL
concentration at 8 hr ([1]; male, BALB/c, mouse, plasma, po, 5 mg/kg, PO 5 mg/kg, 8 hr, read-out: Plasma concentration, individual animals): 43 ng/mL
concentration at 24 hr ([1]; male, BALB/c, mouse, plasma, po, 5 mg/kg, PO 5 mg/kg, 24 hr): 1.8 ng/mL
half-life ([1]; male, BALB/c, mouse, plasma, IV 1 mg/kg, terminal elimination half-life, read-out: T1/2 (converted)): 4.24 h
Vd ([1]; male, BALB/c, mouse, plasma, IV 1 mg/kg, read-out: Vss): 1.2 L/kg
Tmax ([1]; male, BALB/c, mouse, plasma, PO 5 mg/kg): 0.25 h
bioavailability ([1]; male, BALB/c, mouse, plasma, PO 5 mg/kg vs IV 1 mg/kg, solution, from AUClast, read-out: % F (oral bioavailability)): 42%
half-life ([1]; male, BALB/c, mouse, plasma, PO 5 mg/kg, read-out: T1/2 (expressed as T1/2Z) (converted)): 3.26 h
AUC(0-inf) [1, 3]: 1490 ng·h/mL
AUC(0-t) [1, 3]: 1480 ng·h/mL
clearance ([1]; male, BALB/c, mouse, IV 1 mg/kg, plasma clearance): 11.2 mL/min/kg
C0 ([1]; male, BALB/c, mouse, IV 1 mg/kg, plasma, read-out: C0 (back extrapolated conc.)): 2750 ng/mL
AUC(0-inf) [1, 4]: 3120 ng·h/mL
AUC(0-t) [1, 4]: 3110 ng·h/mL
Cmax [1, 4]: 1860 ng/mL
Clinical signs [2]: normal and without any clinical signs
Compound: Cn1c(=O)c2c(ncn2CC(=O)Nc2ccc(-c3ccccc3O)nn2)n(C)c1=O [Compound 1, 2-(1,3-dimethyl-2,6-dioxo-1,2,3,6-tetrahydro-7H-purin-7-yl)-N-(6-(2-hydroxyphenyl)pyridazin-3-yl)acetamide]
IC50 (HEK293-STF3A cells): 9 nM
Plasma concentration, individual animals ([1]; IV 1 mg/kg, 0.08 hr, 1 mg/kg): 1220.50 ng/mL and 2541.20 ng/mL and 2233.92 ng/mL
Plasma concentration, individual animals ([1]; IV 1 mg/kg, 1 hr, 1 mg/kg): 151.52 ng/mL and 496.44 ng/mL and 268.90 ng/mL
Plasma concentration, individual animals ([1]; IV 1 mg/kg, 8 hr, 1 mg/kg): 6.59 ng/mL and 27.95 ng/mL and 8.94 ng/mL
Plasma concentration, individual animals ([1]; PO 5 mg/kg, 0.5 hr, 5 mg/kg): 2167.46 ng/mL and 1898.77 ng/mL and 1070.15 ng/mL
Plasma concentration, individual animals ([1]; PO 5 mg/kg, 4 hr, 5 mg/kg): 86.92 ng/mL and 503.47 ng/mL and 59.61 ng/mL

— US11186581B2, “2-(1,3-dimethyl-2,6-dioxo-1,2,3,6-tetrahydro-7H-purin-7-yl)-N-(6-(2-hydroxyphenyl)pyridazin-3-yl)acetamide as a Wnt pathway modulator” (Agency for Science, Technology and Research, priority 2017, dated 2021)
